Values quoted from earlier work as cited in US7737327B2, “Methods for screening for genes and small molecules that activate mammalian receptor proteins” (The University of Kentucky Research Foundation, priority 2004, dated 2010).

What was measured:
[1] = mice on a high-cholesterol diet
[2] = test system: mouse mammary tumor virus promoter; settings: only when low level of inducer (200 nm dexamethasone) present simultaneously

Compound | effect on hepatic cholesterol [1] | effect on activity of mouse mammary tumor virus promoter [2]
C/C=C1\C(=O)C[C@H]2[C@@H]3CCC4=CC(=O)CC[C@]4(C)[C@H]3CC[C@]12C [guggelsterone] | decrease hepatic cholesterol | –
(−)-epigallocatechin-3-O-gallate | – | enhance the activity
